Reference: the NIST ThermoML archive (doi:10.1016/j.jct.2012.03.016)
Where “and” joins values, the source holds several entries; their conditions need not be identical. Identical values can stand only once.

Tests used:
[1] = Liquid, Closed cell (Static) method
[2] = excess molar enthalpy (molar enthalpy of mixing); xn = mol fraction of the nth substance listed; conditions: 303.15 K, 101.3 kPa, Liquid, Calvet calorimetry

CCCCOC [butyl methyl ether]
[1]
Conditions | vapor or sublimation pressure
262.99 K | 3.2 kPa
263.15 K | 3.194 kPa
273.04 K | 5.7 kPa
273.15 K | 5.704 kPa
283.07 K | 9.6 kPa
283.15 K | 9.688 kPa
293.1 K | 15.6 kPa
293.15 K | 15.74 kPa
303.12 K | 24.4 kPa
303.15 K | 24.61 kPa
313.15 K | 37.17 kPa
313.16 K | 36.8 kPa and 36.9 kPa
323.15 K | 54.46 kPa
323.2 K | 54 kPa
333.15 K | 77.64 kPa
333.25 K | 74.1 kPa

C=CCCCC [hex-1-ene]
[1]
Conditions | vapor or sublimation pressure [kPa]
263.15 K | 4.46
263.45 K | 4.5
273.15 K | 7.716
273.32 K | 7.7
283.15 K | 12.71
283.24 K | 12.8
293.15 K | 20.08
293.22 K | 20.1
303.15 K | 30.54
303.22 K | 30.6
313.15 K | 44.96
313.2 K | 45
323.15 K | 64.28
323.19 K | 64.4
333.15 K | 89.55
333.23 K | 89.7

C=CCCCC [hex-1-ene] + COC(C)(C)C
[2]
Conditions | excess molar enthalpy [kcal/mol]
x1 = 0.1491 | 0.0209
x1 = 0.2162 | 0.0271
x1 = 0.3039 | 0.033
x1 = 0.4052 | 0.0369
x1 = 0.4892 | 0.0384
x1 = 0.6174 | 0.0379
x1 = 0.7128 | 0.0343
x1 = 0.788 | 0.0295
x1 = 0.8837 | 0.0198

CCCCOC [butyl methyl ether] + C=CCCCC
[2]
Conditions | excess molar enthalpy [kcal/mol]
x2 = 0.0997 | 0.0055
x2 = 0.1966 | 0.011
x2 = 0.2897 | 0.0152
x2 = 0.3935 | 0.0193
x2 = 0.4933 | 0.0214
x2 = 0.5922 | 0.0217
x2 = 0.694 | 0.0205
x2 = 0.7912 | 0.0169
x2 = 0.8863 | 0.0105

COC(C)(C)C [2-methoxy-2-methylpropane]
[1]
Conditions | vapor or sublimation pressure [kPa]
263.15 K | 6.245
263.53 K | 6.4
273.15 K | 10.67
273.34 K | 10.8
283.15 K | 17.41
283.27 K | 17.6
293.15 K | 27.25
293.25 K | 27.4
303.15 K | 41.16
303.22 K | 41.2
313.15 K | 60.22
313.24 K | 60.3
323.15 K | 85.65
323.21 K | 85.8
333.15 K | 118.78
333.19 K | 119.2
